# According to patent publication EP4778531A1, “MUSCLE RELAXANT ANTAGONIST FOR REVERSAL FOR BENZYLISOQUINOLINE MUSCLE RELAXANT” (priority 2023, dated 2025):
# Key:
# [1] = test system: Inflammation-Related Factors; type: in vivo, ICR mice; conditions: Adamgammadex sodium 1 g/kg, Sugammadex sodium 1 mg/kg, Neostigmine 0.3 mg/kg
# Protocol: An antibody array is a type of protein chip characterized by miniaturization, integration, and high throughput. It can be used to detect the expression abundance of proteins related to a specific physiological or pathological process. The principle involves arranging capture antibodies on a membrane or glass slide, incubating with the sample, adding biotin-labeled antibodies against the target proteins, and finally using HRP-streptavidin or fluorescein-streptavidin to detect the chip signal. Signals are detected using chemiluminescence or HiLyte™ Fluor 555-streptavidin.
# In this experiment, ICR mice were randomly divided into a blank group, Adamgammadex sodium (1 g/kg) group, Sugammadex sodium (1 mg/kg) group, and Neostigmine (0.3 mg/kg) group, with 2 mice per group. Mice in each group given the corresponding dosage of compound via the tail vein once daily for 5 consecutive days. On the last day after administration, plasma from the 2 animals per group was mixed and detected using the Ary028 immune chip kit. Specific detection steps were as follows: • (1) Sample volume determination: 200 µL serum sample per Array unit. (2) Blocking protein chip: Each membrane was blocked with 2 mL of corresponding Array Buffer, incubated on a shaker for 1 hour. (3) Sample processing: Samples were diluted with corresponding Array Buffer to a volume of 1.5 mL per membrane, the corresponding Array unit was added, and incubated overnight with the Array protein membrane at 4°C. (4) Membranes were washed three times with corresponding Wash buffer, then diluted detection antibody was added and incubated at room temperature for 1 h. (5) Membranes were washed three times with corresponding Wash buffer, streptavidin-HRP was added and incubated for 30min at room temperature with shaking. (6) Membranes were washed three times with corresponding Wash buffer, 1 mL of chemiluminescent reagent was added to each well, and developed on a chemiluminescence imager. (7) Fluorescence intensity was used to represent the relative concentration of the corresponding protein.
# [2] = test system: neuromuscular blockade induced by atracurium; conditions: H. D. de Boer et al., British Journal of Anaesthesia 2006; cited from earlier work
# [3] = such as mivacurium, atracurium, and cisatracurium; background; cited from earlier work
# [4] = ICR mice, tail vein once daily for 5 days, pooled plasma of 2 mice, N.D. = below minimum detection limit
structure (smiles),measurement,setting,value
"O=C([O-])CCSC[C@H]1O[C@@H]2O[C@H]3[C@H](O)[C@@H](O)[C@@H](O[C@H]4[C@H](O)[C@@H](O)[C@@H](O[C@H]5[C@H](O)[C@@H](O)[C@@H](O[C@H]6[C@H](O)[C@@H](O)[C@@H](O[C@H]7[C@H](O)[C@@H](O)[C@@H](O[C@H]8[C@H](O)[C@@H](O)[C@@H](O[C@H]9[C@H](O)C(O)[C@@H](O[C@H]1[C@H](O)[C@H]2O)O[C@@H]9CSCCC(=O)[O-])O[C@@H]8CSCCC(=O)[O-])O[C@@H]7CSCCC(=O)[O-])O[C@@H]6CSCCC(=O)[O-])O[C@@H]5CSCCC(=O)[O-])O[C@@H]4CSCCC(=O)[O-])O[C@@H]3CSCCC(=O)[O-].[Na+].[Na+].[Na+].[Na+].[Na+].[Na+].[Na+].[Na+] (stereo partly drawn) [Compound 7, Sugammadex sodium]",Fluorescence Intensity BAFF/BlyS/ TNFSF13B (B cell activation factor),[1]; [4],13375.34
same,Fluorescence Intensity C-Reactive Protein/CRP (C-reactive protein),[1]; [4],8550.52
same,Fluorescence Intensity CCL21/6Ckine (Lymphocyte chemokine CCL21),[1]; [4],27027.2
same,Fluorescence Intensity CCL22/MDC (Macrophage-derived chemokine),[1]; [4],2578.89
same,Fluorescence Intensity CD160 (Leukocyte differentiation antigen160),[1]; [4],187.67
same,Fluorescence Intensity CXCL9/MIG (IFN-γ-induced monocyte factor),[1]; [4],3617.92
same,Fluorescence Intensity Chemerin (Chemotactic factor),[1]; [4],4629.24
same,Fluorescence Intensity IL-7 (Interleukin-7),[1]; [4],1922.84
same,Fluorescence Intensity IL-11 (Interleukin-11),[1]; [4],216.49
same,Fluorescence Intensity IL-12p40 (Interleukin IL-12p40),[1]; [4],1049.34
same,Fluorescence Intensity IL-28 (Interleukin-28),[1]; [4],2440.68
same,Fluorescence Intensity IL-33 (Interleukin-33),[1]; [4],592.77
same,Fluorescence Intensity M-CSF (Macrophage colony-stimulating factor),[1]; [4],5871.05
same,Fluorescence Intensity Myeloperoxidase (Mastoperoxidase),[1]; [4],4645.21
same,Fluorescence Intensity Pentraxin 3 (Pertussis toxin 3),[1]; [4],4555.53
same,Fluorescence Intensity TIM-1/KIM-1/ HAVCR (Hepatitis A virus receptor-1 (inflammation/ immunity)),[1]; [4],1023.1
same,impact on inducing immune inflammation in mice (in words),[1]; conclusion from Tables 3 and 4,second-lowest impact
same,Fluorescence Intensity M-CSF (Macrophage lysis-stimulating factor),"[1]; second M-CSF line of Table 4, ICR mice, tail vein once daily for 5 days, pooled plasma of 2 mice, N.D. = below minimum detection limit",5871.05
same,Fluorescence Intensity Pentraxin 3/TSG-14 (Pertussis toxin 3),"[1]; second Pentraxin 3 line of Table 4, ICR mice, tail vein once daily for 5 days, pooled plasma of 2 mice, N.D. = below minimum detection limit",4555.53
same,reversing the neuromuscular blockade induced by atracurium (in words),[2],ineffective
same,binding to succinylcholine or benzylisoquinoline-type neuromuscular blocking agents (in words),[3],does not bind
